From patent publication US7087634B2, “Cyclic AMP-specific phosphodiesterase inhibitors” (ICOS Corporation, priority 1999, dated 2006)

Columns and labels:
[1] = molecular target: T1, PDE3A (Homo sapiens, UniProt Q14432); experiment: Inhibition of PDE3A; type: biochemical
T1 construct: Plasmid pBB-PDE3A contained the complete open reading frame of PDE3A; made in house; host or cells: Sf9 (baculovirus)

[2] = molecular target: T2, PDE2 (Homo sapiens, UniProt O00408); experiment: Inhibition of PDE2; type: biochemical
T2 construct: made in house; host or cells: Saccharomyces cerevisiae strain YI34
T2 sequence (O00408 whole entry): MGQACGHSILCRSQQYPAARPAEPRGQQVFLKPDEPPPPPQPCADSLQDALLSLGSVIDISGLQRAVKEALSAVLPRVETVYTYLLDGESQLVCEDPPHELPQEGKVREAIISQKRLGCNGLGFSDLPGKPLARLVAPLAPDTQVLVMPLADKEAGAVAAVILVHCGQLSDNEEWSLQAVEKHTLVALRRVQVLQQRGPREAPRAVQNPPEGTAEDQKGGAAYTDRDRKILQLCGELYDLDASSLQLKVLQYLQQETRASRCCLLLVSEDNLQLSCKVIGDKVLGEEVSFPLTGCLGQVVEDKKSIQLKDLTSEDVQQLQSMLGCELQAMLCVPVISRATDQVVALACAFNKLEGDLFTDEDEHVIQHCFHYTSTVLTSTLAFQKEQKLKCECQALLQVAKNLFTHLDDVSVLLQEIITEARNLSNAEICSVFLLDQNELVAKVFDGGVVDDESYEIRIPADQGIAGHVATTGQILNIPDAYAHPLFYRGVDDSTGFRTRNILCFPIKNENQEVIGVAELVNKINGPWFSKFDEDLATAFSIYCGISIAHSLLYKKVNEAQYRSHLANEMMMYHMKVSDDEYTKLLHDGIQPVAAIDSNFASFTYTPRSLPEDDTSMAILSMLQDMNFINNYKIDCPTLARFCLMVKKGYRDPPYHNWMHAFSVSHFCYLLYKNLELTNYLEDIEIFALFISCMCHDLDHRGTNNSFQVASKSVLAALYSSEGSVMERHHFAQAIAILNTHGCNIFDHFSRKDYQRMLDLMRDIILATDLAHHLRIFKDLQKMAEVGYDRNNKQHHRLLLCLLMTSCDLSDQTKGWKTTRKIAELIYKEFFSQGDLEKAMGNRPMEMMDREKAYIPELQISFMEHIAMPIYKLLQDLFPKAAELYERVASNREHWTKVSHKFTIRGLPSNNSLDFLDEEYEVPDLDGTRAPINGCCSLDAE
Experimental: Recombinant production of human PDE1B, PDE2, PDE4A, PDE4B, PDE4C, PDE4D, PDE5, and PDE7 was carried out similarly to that described in Example 7 of U.S. Pat. No. 5,702,936, incorporated herein by reference, except that the yeast transformation vector employed, which is derived from the basic ADH2 plasmid described in Price et al., Methods in Enzymology, 185, pp. 308–318 (1990), incorporated yeast ADH2 promoter and terminator sequences and the Saccharomyces cerevisiae host was the protease-deficient strain BJ2–54 deposited on Aug. 31, 1998 with the American Type Culture Collection, Manassas, Va., under accession number ATCC 74465. Transformed host cells were grown in 2×SC-leu medium, pH 6.2, with trace metals, and vitamins. After 24 hours, YEP medium-containing glycerol was added to a final concentration of 2×YET/3% glycerol. […]
Phosphodiesterase activity of the preparations was determined as follows. […] The [32P]5′-AMP or [32P]5′-GMP then was quantitatively converted to free [32P]phosphate and unlabeled adenosine or guanosine by the action of snake venom 5′-nucleotidase. […] PDE enzyme was present in quantities that yield <30% total hydrolysis of substrate (linear assay conditions). […] After centrifugation (750×g for 3 minutes) to sediment the charcoal, a sample of the supernatant was taken for radioactivity determination in a scintillation counter and the PDE activity was calculated. […]

[3] = molecular target: T3, PDE1C (Homo sapiens, UniProt Q14123); experiment: Inhibition of PDE1C; type: biochemical
T3 construct: Plasmid Hcam3aBB contained the complete open reading frame of PDE1C3; made in house; host or cells: Sf9 (baculovirus)

[4] = molecular target: T4, PDE1A (Homo sapiens, UniProt P54750); experiment: Inhibition of PDE1A; type: biochemical
T4 construct: Plasmid pBB-PDE1A3/6 contained the complete open reading frame of PDE1A3; made in house; host or cells: Sf9 (baculovirus)

[5] = system: serum TNFα; experiment: Combined mouse endotoxin-stimulated TNFα release assay (serum TNFα); type: in vivo; settings: female Balb/c mice, i.p., LPS model
Experimental: The purpose of this study was to determine the efficacy of PDE4 inhibitors in vivo in an LPS mouse model together with a determination with respect to central nervous system (CNS) side-effects manifested by a decrease in spontaneous mobility.
The test animals were female Balb/c mice, having an average weight of about 20 g. The PDE4 inhibitors, formulated in 30% Cremophor® EL, were administered via intraperitoneal (i.p.) injections at doses of 0.1, 1.0, 10.0, and 100 mg/kg. Individual dose volumes (about 150 μL) were adjusted based on the body weights measured. One hour later, 5 mg/kg LPS in a final volume of 200 μL was injected via the tail vein to each animal. Ninety minutes following the LPS treatment, the animals were bled and serum samples were collected before being stored at −70° C. until assayed.
For efficacy determination, the serum samples were diluted two-fold and TNFα levels were determined using the CYTOSCREEN® Immunoassay Kit (Biosource International). The data were averaged between triplicate sample subjects for each of the tested compounds.

T1 sequence (Q14432 whole entry): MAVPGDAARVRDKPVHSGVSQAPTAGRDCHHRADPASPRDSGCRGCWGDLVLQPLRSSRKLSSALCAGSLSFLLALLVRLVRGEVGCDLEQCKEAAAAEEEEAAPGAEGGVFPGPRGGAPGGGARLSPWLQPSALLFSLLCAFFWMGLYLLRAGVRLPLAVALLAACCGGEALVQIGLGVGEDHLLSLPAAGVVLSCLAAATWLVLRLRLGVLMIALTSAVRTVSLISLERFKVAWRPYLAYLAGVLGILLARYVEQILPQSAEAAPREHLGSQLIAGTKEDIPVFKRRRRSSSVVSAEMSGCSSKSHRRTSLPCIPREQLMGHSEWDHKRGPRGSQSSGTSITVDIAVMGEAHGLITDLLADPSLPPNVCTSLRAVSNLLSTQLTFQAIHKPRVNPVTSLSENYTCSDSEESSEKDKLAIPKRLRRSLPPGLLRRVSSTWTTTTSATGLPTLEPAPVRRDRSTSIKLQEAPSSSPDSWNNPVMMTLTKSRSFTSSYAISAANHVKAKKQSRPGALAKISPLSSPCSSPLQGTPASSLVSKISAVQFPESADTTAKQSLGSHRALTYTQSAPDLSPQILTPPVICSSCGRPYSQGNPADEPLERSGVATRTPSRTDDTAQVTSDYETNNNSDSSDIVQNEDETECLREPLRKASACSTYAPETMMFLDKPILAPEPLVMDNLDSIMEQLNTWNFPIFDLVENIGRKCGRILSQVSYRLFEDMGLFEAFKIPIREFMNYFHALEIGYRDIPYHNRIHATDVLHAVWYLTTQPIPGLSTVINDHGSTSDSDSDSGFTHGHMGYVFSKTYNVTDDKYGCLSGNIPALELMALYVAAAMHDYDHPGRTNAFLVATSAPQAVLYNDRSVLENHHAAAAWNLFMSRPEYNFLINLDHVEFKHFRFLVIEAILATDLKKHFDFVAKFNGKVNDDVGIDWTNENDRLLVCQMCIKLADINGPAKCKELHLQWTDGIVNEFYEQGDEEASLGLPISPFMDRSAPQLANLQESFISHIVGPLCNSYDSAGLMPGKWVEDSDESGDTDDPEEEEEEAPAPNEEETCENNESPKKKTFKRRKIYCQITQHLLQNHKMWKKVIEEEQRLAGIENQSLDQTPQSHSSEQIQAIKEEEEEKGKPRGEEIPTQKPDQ

CCOC(=O)c1c(C)nn(-c2cccc([N+](=O)[O-])c2)c1C [Example 2, 3,5-dimethyl-1-(3-nitrophenyl)-1H-pyrazole-4-carboxylic acid ethyl ester]
IC50 [1]: 137 µM
IC50 [2]: 21.8 µM
IC50 [3]: 30.2 µM
IC50 [4]: 25.1 µM
% TNFQ Inhibition ([5]; 10 mg/kg): 70%
% TNFQ Inhibition ([5]; 100 mg/kg): 100%
